Columns and labels:
[1] = tested on: human lower urinary tract smooth muscle strips (prostatic/urethral); assay: Agonist potency on human lower urinary tract smooth muscle strips (isometric tension, organ bath); type: cell-based; conditions: for EC50 / Emax: human LUT strips; for EC50: cocaine 10 μM, corticosterone 10 μM, propanolol 1 μM present, read-out: pEC50 (increase in developed tension) (converted); for Emax: relative to 100 mM potassium chloride, read-out: maximum response equivalent to % of the response to 100 mM potassium chloride
Procedure: Determinations were made of agonist potency on human LUT and blood vessel smooth muscle. Tissue sources: human lower urinary tract smooth muscle strips (prostatic/urethral) were obtained from patients undergoing transurethral resection of the prostate procedure for benign prostatic hyperplasia. Human mesenteric arteries (500-750 μm internal diameter) were obtained from patients undergoing bowel resection for carcinoma. Tissues were preserved in Krebs-bicarbonate solution at 4° C. from the time of surgery until used in functional experiments within 24 hours. Sections of mesenteric artery (5 mm in length) were set up between stainless steel stirrups after removal of the endothelium by gentle rubbing. Strips of prostatic/urethral smooth muscle (3×10 mm) and the mesenteric arteries were set up under 1 g resting tension in Krebs solution of composition (mM): NaCl 118.4; KCl 4.7; CaCl2 1.9; NaHCO3 25.0; MgSO4 1.2; KH2PO4 1.2; glucose 11.7, gassed with 5% CO2 in O2 and maintained at 37° C. The tension developed by all tissues was measured by means of isometric force transducers (Lectromed UFI 57G sensitivity) and recorded to computer via a Cambridge Electronic Design 1401 analogue to digital converter, using CHART software. Tissues were equilibrated for 60 minutes with several changes of bathing medium prior to starting drug administrations. All experiments were performed in the presence of cocaine (10 μM) and corticosterone (10 μM), to prevent neuronal and extraneuronal uptake of drugs, and propanolol (1 μM), to block B adrenoreceptors. Cumulative concentration-response curves were obtained to 2-[(5-chloro-2-methoxyphenyl)azo]-1H-imidazole, and to noradrenaline for comparison. […] Increases in developed tension to agonist were plotted and individual EC50 values were determined. From these, pEC50 (negative log of the EC50) values were determined for each experiment and where appropriate mean values of these with standard error of the means calculated.

[2] = tested on: human mesenteric arteries; assay: Agonist potency on human mesenteric artery sections (isometric tension, organ bath); type: cell-based; conditions: for EC50 / mean maximum contraction: human mesenteric arteries; for EC50: endothelium removed, cocaine 10 μM, corticosterone 10 μM, propanolol 1 μM present, read-out: pEC50 (increase in developed tension) (converted); for mean maximum contraction: for the imidazole the maximum occurred at 20 micromolar
Procedure: Determinations were made of agonist potency on human LUT and blood vessel smooth muscle. Tissue sources: human lower urinary tract smooth muscle strips (prostatic/urethral) were obtained from patients undergoing transurethral resection of the prostate procedure for benign prostatic hyperplasia. Human mesenteric arteries (500-750 μm internal diameter) were obtained from patients undergoing bowel resection for carcinoma. Tissues were preserved in Krebs-bicarbonate solution at 4° C. from the time of surgery until used in functional experiments within 24 hours. Sections of mesenteric artery (5 mm in length) were set up between stainless steel stirrups after removal of the endothelium by gentle rubbing. Strips of prostatic/urethral smooth muscle (3×10 mm) and the mesenteric arteries were set up under 1 g resting tension in Krebs solution of composition (mM): NaCl 118.4; KCl 4.7; CaCl2 1.9; NaHCO3 25.0; MgSO4 1.2; KH2PO4 1.2; glucose 11.7, gassed with 5% CO2 in O2 and maintained at 37° C. The tension developed by all tissues was measured by means of isometric force transducers (Lectromed UFI 57G sensitivity) and recorded to computer via a Cambridge Electronic Design 1401 analogue to digital converter, using CHART software. Tissues were equilibrated for 60 minutes with several changes of bathing medium prior to starting drug administrations. All experiments were performed in the presence of cocaine (10 μM) and corticosterone (10 μM), to prevent neuronal and extraneuronal uptake of drugs, and propanolol (1 μM), to block B adrenoreceptors. Cumulative concentration-response curves were obtained to 2-[(5-chloro-2-methoxyphenyl)azo]-1H-imidazole, and to noradrenaline for comparison. For the mesenteric artery preparations following the recording of the final drug response to 2-[(5-chloro-2-methoxyphenyl)azo]-1H-imidazole, a supramaximal concentration of noradrenaline was added as a further test for partial agonism. Increases in developed tension to agonist were plotted and individual EC50 values were determined. From these, pEC50 (negative log of the EC50) values were determined for each experiment and where appropriate mean values of these with standard error of the means calculated.

Row | EC50 [1] [µM] | EC50 [2] [µM] | Compound | Emax [1] [%] | mean maximum contraction [2] [g] | mean further increase in tension ([2]; noradrenaline 160-210 μM added after the highest concentration of 2-[(5-chloro-2-methoxyphenyl)azo]-1H-imidazole, n=3) [g] | agonist character compared with noradrenaline ([1]; human LUT tissue) | agonist character compared with noradrenaline ([2]; human blood vessels (mesenteric arteries))
1 | 3.98 | 0.661 | NC[C@H](O)c1ccc(O)c(O)c1 [Noradrenaline, noradrenaline, reference compound] | 63.7 ± 4.8 | 4.22 ± 2.21 | 2.7 ± 0.9 |  | 
2 | 2 | 5.01 | COc1ccc(Cl)cc1N=Nc1ncc[nH]1 [2-[(5-chloro-2-methoxyphenyl)azo]-1H-imidazole] | 62.5 | 1.1 ± 0.7 |  | full agonist | partial agonist
